The results in this text go back to ChEMBL document CHEMBL5465560, “Selectivity Literature for EUbOPEN Chemogenomic Library” (2024).

Assay [1] concerns the target Receptor-interacting serine/threonine-protein kinase 3 (Homo sapiens) (UniProt Q9Y572). Nature of the assay: Selectivity interaction (LanthaScreen Eu Kinase Binding Assay) EUB0001632a RIPK3. The following applies: at 10 µM.
For assay [2], the target named is Casein kinase I isoform gamma-3 (Homo sapiens) (UniProt Q9Y6M4). Nature of the assay: Selectivity interaction (Ambit KINOMEscan and KiNATiv profiling in Jurkat cells) EUB0000090b CSNK1G3. Format: cell-based. The following applies: at 1 µM.
Chain of Casein kinase I isoform gamma-3 (Homo sapiens) (Q9Y6M4 whole entry, looked up, canonical isoform): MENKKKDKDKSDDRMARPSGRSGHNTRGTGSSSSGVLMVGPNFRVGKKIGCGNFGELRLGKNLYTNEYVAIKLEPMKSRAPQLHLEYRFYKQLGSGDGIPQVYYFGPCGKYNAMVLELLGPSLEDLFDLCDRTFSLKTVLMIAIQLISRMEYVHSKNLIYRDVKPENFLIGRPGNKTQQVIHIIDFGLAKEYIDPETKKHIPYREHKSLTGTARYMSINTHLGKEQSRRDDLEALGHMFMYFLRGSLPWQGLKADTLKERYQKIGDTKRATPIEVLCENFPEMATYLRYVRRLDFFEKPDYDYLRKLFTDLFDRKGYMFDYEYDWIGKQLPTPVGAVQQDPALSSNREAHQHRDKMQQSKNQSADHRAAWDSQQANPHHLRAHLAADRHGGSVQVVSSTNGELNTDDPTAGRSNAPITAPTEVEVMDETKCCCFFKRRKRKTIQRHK
Assay [3] addresses Tyrosine-protein kinase Srms (Homo sapiens) (UniProt Q9H3Y6). Nature of the assay: Selectivity interaction (SelectScreen profiling (Invitrogen)) EUB0000607a SRMS. The conditions noted are these: at 2 µM.
The target of assay [4] is Dual specificity protein kinase CLK3 (Homo sapiens, UniProt P49761). Nature of the assay: Selectivity interaction (Kinase panel (DSF assay)) EUB0001558a CLK3.
In assay [5] the target is Serine/threonine-protein kinase 26 (Homo sapiens, UniProt Q9P289). Nature of the assay: Selectivity interaction (KinomeScan (DiscoverX)) EUB0000229b STK26. The following applies: at 10 µM.
Assay [6] addresses T1, Protein kinase C epsilon type (Homo sapiens) (UniProt Q02156).
T1 sequence (whole entry): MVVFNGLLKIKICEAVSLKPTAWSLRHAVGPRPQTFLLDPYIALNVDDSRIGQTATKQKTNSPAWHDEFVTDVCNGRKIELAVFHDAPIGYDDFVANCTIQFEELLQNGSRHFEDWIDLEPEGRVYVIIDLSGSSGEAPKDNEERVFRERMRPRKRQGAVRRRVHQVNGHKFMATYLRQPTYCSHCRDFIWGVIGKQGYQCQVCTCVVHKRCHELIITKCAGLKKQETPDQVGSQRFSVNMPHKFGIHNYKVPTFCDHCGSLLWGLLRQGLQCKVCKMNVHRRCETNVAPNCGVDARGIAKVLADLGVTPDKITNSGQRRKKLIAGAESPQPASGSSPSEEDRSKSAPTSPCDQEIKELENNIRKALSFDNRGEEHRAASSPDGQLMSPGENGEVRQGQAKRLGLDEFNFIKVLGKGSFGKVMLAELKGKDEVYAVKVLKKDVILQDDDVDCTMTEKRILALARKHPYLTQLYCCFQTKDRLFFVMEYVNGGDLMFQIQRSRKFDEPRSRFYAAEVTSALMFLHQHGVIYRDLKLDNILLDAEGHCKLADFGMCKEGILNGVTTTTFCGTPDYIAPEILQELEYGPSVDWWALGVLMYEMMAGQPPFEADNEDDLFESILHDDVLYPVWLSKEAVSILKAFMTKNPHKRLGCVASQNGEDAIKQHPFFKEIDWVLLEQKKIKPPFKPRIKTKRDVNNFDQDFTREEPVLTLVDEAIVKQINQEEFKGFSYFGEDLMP
Nature of the assay: Selectivity interaction (KinomeScan (DiscoverX)) EUB0000311b PRKCE. The following applies: at 1 µM.

Assay [7] concerns Phosphatidylinositol 4,5-bisphosphate 3-kinase catalytic subunit alpha isoform (Homo sapiens), P42336 [C420R]. Nature of the assay: (§1) Selectivity interaction (KinomeScan (DiscoverX)) EUB0001079a PIK3CA. The conditions noted are these: at 1 µM.
Chain of Phosphatidylinositol 4,5-bisphosphate 3-kinase catalytic subunit alpha isoform (Homo sapiens), P42336 [C420R] (P42336 whole entry C420R, canonical isoform): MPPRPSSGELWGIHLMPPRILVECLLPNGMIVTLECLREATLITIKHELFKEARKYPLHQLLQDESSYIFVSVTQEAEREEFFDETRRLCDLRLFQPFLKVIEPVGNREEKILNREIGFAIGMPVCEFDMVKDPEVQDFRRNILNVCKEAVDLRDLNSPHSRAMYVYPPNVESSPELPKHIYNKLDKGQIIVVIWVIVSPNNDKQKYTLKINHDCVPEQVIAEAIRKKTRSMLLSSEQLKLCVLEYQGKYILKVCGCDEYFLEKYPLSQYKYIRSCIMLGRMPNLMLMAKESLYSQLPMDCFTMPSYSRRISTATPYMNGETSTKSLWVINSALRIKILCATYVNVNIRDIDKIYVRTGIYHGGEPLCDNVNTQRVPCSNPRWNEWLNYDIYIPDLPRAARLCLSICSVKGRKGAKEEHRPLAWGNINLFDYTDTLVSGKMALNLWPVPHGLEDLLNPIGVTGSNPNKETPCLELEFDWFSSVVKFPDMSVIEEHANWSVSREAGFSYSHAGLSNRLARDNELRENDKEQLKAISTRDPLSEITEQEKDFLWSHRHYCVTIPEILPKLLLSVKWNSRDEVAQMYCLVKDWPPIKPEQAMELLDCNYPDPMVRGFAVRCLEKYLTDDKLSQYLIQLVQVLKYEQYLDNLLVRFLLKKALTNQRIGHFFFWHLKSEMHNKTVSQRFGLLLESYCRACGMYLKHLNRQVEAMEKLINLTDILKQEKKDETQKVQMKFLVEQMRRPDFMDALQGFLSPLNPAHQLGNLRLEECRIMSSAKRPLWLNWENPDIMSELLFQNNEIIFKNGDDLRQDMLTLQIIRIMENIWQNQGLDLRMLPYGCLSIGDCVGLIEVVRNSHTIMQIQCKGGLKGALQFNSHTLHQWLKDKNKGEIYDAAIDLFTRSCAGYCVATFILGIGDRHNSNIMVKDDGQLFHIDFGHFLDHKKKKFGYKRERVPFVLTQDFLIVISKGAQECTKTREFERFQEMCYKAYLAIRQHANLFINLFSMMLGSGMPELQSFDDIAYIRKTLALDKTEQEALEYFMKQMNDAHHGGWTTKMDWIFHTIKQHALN
Assay [8] deals with Phosphatidylinositol 4,5-bisphosphate 3-kinase catalytic subunit alpha isoform (Homo sapiens), P42336 [E542K]. Described as §1. The conditions noted are these: at 1 µM.
The subject of assay [9] is Phosphatidylinositol 4,5-bisphosphate 3-kinase catalytic subunit alpha isoform (Homo sapiens), P42336 [E545A]. Described as §1. The conditions noted are these: at 1 µM.
The test system of assay [10] is Phosphatidylinositol 4,5-bisphosphate 3-kinase catalytic subunit alpha isoform (Homo sapiens), P42336 [E545K]. Described as §1. The conditions noted are these: at 1 µM.
Assay [11] has as its system Phosphatidylinositol 4,5-bisphosphate 3-kinase catalytic subunit alpha isoform (Homo sapiens), P42336 [H1047L]. The description is as §1. The following applies: at 1 µM.
Assay [12] relates to Phosphatidylinositol 4,5-bisphosphate 3-kinase catalytic subunit alpha isoform (Homo sapiens), P42336 [H1047Y]. Described as §1. The conditions noted are these: at 1 µM.
In assay [13] the test system is Phosphatidylinositol 4,5-bisphosphate 3-kinase catalytic subunit alpha isoform (Homo sapiens), P42336 [I800L]. The description is as §1. The conditions noted are these: at 1 µM.
Assay [14] relates to Phosphatidylinositol 4,5-bisphosphate 3-kinase catalytic subunit alpha isoform (Homo sapiens), P42336 [M1043I]. The description is as §1. The conditions noted are these: at 1 µM.
Assay [15] addresses Serine/threonine-protein kinase 16 (Homo sapiens, UniProt O75716). Nature of the assay: Selectivity interaction (ActivX KiNativ screen (kinase selectivity in THP-1 cell lysates)) EUB0000639a STK16. Format: subcellular. The following applies: lysate, at 0.04 µM.
Assay [16] concerns the target Cyclin-dependent kinase 14 (Homo sapiens) (UniProt O94921). Nature of the assay: Selectivity interaction (ActivX KiNativ screen (kinase selectivity in THP-1 cell lysates)) EUB0000639a CDK14. Format: subcellular. The conditions noted are these: lysate, at 0.04 µM.
The target in assay [17] is Phosphatidylinositol 4,5-bisphosphate 3-kinase catalytic subunit gamma isoform (Homo sapiens) (UniProt P48736). Nature of the assay: Selectivity interaction (ActivX KiNativ screen (kinase selectivity in THP-1 cell lysates)) EUB0000639a PIK3CG. Format: subcellular. The following applies: lysate.
Chain of Phosphatidylinositol 4,5-bisphosphate 3-kinase catalytic subunit gamma isoform (Homo sapiens) (P48736 whole entry, looked up, canonical isoform): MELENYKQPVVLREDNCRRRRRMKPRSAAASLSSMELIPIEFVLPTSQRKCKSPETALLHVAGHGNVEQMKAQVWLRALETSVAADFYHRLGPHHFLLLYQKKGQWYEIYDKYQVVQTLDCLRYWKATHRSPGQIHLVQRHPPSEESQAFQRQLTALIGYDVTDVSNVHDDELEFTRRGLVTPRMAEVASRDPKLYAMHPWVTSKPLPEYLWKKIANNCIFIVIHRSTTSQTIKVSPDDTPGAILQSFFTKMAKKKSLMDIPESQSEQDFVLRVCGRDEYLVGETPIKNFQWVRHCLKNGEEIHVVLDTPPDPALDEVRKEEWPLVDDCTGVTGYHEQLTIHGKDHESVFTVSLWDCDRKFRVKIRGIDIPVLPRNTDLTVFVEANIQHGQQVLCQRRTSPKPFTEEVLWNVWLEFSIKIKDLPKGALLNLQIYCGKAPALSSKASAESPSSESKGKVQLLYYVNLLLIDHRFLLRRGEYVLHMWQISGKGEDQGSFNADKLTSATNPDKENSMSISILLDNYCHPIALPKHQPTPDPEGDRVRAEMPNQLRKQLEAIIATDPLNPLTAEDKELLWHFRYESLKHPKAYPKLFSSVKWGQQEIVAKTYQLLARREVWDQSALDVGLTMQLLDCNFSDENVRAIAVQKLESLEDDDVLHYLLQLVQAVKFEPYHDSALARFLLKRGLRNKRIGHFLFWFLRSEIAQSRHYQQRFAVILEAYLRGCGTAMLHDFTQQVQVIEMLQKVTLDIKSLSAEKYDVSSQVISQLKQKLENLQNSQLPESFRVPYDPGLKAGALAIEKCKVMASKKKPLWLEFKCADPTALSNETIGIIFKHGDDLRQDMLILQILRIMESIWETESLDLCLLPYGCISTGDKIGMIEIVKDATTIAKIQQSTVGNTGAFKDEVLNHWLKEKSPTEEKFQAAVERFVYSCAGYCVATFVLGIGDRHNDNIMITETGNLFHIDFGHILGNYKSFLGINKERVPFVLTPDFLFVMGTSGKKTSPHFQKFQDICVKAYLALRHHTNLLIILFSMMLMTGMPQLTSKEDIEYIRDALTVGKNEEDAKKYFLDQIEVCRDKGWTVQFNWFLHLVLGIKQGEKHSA
Assay [18] deals with Serine/threonine-protein kinase pim-3 (Homo sapiens) (UniProt Q86V86). The following applies: at 10 µM.
Assay [19] has as its target MAP/microtubule affinity-regulating kinase 3 (Homo sapiens) (UniProt P27448). Nature of the assay: Selectivity interaction (KinomeScan (DiscoverX)) EUB0001049a MARK3. The following applies: at 1 µM.
Assay [20] concerns the target Ribosomal protein S6 kinase alpha-2 (Homo sapiens) (UniProt Q15349). Nature of the assay: Selectivity interaction (KinomeScan (DiscoverX)) EUB0000695a RPS6KA2. The conditions noted are these: at 100 nM.
The target in assay [21] is CDK12/Cyclin K (Homo sapiens) (UniProt O75909+Q9NYV4). Nature of the assay: Selectivity interaction (ProQinase) EUB0000171b CDK12. Format: protein-complex assay. The following applies: at 1 µM.
Assay [22] deals with Sodium channel protein type 2 subunit alpha (Homo sapiens) (UniProt Q99250). Nature of the assay: Selectivity interaction (Eurofins CEREP Diversity Profile (receptors and ion channels)) EUB0000279b SCN2A. The following applies: at 10 µM.
Chain of Sodium channel protein type 2 subunit alpha (Homo sapiens) (Q99250 whole entry, looked up): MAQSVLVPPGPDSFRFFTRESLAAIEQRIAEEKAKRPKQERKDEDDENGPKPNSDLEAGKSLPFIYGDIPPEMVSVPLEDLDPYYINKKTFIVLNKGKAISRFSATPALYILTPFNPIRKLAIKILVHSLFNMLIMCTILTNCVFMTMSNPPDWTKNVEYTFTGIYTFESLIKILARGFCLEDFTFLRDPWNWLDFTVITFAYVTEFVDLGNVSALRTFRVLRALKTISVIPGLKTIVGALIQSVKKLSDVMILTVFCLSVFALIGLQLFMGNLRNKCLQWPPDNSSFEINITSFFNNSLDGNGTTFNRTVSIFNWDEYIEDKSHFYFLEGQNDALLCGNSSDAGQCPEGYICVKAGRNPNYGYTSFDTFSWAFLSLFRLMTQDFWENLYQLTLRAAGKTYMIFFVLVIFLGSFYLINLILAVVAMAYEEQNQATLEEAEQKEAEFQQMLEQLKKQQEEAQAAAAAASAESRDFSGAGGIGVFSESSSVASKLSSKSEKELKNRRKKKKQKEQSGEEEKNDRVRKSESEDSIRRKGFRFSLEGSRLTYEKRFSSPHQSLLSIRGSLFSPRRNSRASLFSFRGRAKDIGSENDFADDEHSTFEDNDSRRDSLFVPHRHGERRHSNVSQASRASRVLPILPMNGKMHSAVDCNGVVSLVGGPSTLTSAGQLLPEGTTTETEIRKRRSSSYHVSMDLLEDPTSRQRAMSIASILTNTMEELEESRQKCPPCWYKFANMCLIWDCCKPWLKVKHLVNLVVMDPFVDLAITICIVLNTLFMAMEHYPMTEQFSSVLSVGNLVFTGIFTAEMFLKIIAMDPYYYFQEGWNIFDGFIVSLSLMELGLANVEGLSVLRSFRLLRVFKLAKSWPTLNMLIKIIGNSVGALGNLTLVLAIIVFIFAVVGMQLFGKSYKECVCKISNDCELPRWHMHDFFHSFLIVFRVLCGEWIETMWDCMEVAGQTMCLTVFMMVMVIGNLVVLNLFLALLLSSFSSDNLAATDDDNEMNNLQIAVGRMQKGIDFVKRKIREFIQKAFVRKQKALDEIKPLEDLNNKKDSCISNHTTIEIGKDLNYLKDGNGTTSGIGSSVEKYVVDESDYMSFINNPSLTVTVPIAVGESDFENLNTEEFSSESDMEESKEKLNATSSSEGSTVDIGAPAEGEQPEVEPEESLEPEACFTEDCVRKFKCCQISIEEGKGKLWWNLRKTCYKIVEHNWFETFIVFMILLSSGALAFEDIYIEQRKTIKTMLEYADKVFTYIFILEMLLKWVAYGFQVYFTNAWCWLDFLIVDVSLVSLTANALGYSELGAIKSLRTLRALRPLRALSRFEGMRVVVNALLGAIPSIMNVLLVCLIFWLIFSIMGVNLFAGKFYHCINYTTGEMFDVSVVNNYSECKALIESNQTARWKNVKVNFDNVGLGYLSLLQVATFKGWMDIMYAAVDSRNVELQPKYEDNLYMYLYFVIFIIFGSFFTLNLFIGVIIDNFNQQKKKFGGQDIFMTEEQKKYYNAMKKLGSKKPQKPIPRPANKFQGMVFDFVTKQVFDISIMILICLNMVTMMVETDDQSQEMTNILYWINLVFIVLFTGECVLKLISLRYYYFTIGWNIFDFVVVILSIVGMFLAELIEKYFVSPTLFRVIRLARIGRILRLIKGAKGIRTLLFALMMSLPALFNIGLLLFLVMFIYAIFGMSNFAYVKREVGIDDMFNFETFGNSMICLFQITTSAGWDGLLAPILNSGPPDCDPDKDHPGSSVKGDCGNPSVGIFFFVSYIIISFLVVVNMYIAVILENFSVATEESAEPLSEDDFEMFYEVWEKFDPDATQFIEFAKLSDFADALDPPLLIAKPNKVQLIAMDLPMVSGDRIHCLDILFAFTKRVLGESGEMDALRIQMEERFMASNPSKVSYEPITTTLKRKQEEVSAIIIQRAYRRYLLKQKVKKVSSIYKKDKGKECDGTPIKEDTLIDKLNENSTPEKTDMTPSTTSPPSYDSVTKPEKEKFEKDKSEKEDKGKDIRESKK
Assay [23] has as its system Tyrosine-protein kinase ABL1 (Homo sapiens), P00519 [Q252H]. Nature of the assay: Selectivity interaction (KinomeScan (DiscoverX)) EUB0000618a ABL1. The following applies: at 10 µM.
Assay [24] concerns the target T2, Dual specificity mitogen-activated protein kinase kinase 5 (Homo sapiens) (UniProt Q13163).
T2 sequence (whole entry): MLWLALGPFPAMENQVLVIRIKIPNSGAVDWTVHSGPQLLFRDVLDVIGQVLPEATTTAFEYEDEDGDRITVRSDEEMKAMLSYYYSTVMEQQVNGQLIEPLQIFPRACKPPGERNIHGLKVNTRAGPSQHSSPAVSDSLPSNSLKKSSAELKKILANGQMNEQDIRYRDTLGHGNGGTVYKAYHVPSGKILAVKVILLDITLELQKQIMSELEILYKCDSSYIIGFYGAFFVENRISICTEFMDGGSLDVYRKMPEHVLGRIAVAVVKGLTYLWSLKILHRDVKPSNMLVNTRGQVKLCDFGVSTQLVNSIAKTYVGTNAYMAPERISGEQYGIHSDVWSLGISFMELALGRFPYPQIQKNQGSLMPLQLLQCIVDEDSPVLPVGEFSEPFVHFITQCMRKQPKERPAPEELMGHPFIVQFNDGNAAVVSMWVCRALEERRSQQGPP
Nature of the assay: Selectivity interaction (KinomeScan (DiscoverX)) EUB0000618a MAP2K5. The following applies: at 10 µM.

Chain of Serine/threonine-protein kinase 16 (O75716 whole entry): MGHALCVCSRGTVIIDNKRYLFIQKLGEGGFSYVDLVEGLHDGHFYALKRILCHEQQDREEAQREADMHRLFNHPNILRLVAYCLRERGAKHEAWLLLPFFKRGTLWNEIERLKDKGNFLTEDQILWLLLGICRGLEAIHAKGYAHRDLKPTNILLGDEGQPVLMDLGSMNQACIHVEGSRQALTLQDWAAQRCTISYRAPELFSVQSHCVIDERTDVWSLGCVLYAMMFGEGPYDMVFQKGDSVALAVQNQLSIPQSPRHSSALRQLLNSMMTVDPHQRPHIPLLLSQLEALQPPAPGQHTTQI

In the case of `Cn1cc(-n2cnc3c(NCc4nc5cc(Cl)c(Cl)cc5[nH]4)nc(N4CCOCC4)nc32)cn1`, the % of inhibition in assay [1] was -15.4%.

For `CN(C)C/C=C/C(=O)Nc1ccc(C(=O)N2CCCC(Nc3ncc(Cl)c(-c4c[nH]c5ccccc45)n3)C2)cc1` (stereo not drawn), the % of control in assay [2] was 67%.

Take `CNC(=O)Nc1ccc(-c2nc(N3CC4CCC(C3)O4)c3cnn(C4CCC5(CC4)OCCO5)c3n2)cc1`: in [3], the % of inhibition was found to be 7%.

On to `CC(C)(O)[C@H](F)CN1Cc2cc(NC(=O)c3cnn4cccnc34)c(N3CCOCC3)cc2C1=O`, for which the dTM in [4] turned out to be 1.3 K.

On to `COc1cc(N(C)c2ccnc3ccc(C(F)(F)F)cc23)cc(OC)c1OC`, for which the % binding in [5] is 99%.

On to `CCc1ccccc1C(=O)Nc1n[nH]c2c(C)c(F)c(C3C(C#N)=C(C)N(C)C(C)=C3C#N)cc12` [BAY-3827], for which, in assay [6], the % of control came to 19%.

Regarding `Nc1cnc(N2CCc3cc(S(=O)(=O)Nc4c(F)cc(Cl)cc4F)cc(N4CCCC4=O)c32)nc1` [TP-020n], the % of control in assay [7] is 84%; in assay [8], 72%; in assay [9] it was 100%; in assay [10] it was 100%; in assay [11], 60%; in assay [12], 100%. Besides, the values for the % of control in [13] and in assay [14] were 80% and 100%, respectively.

Regarding `CC[C@@H]1[C@H](F)C(=O)N[C@@H]1COc1nccc2cc(C(N)=O)c(OC)cc12` [ZIMLOVISERTIB], the % of inhibition in assay [15] was 13.8%; in assay [16], 5.5%; in [17] (at 0.01 µM), 6.3%; in [17] (at 0.04 µM), 12%; in [17] (at 0.2 µM), 7.4%; in [17] (at 1 µM), 13.3%. Further, in assay [17] (at 5 µM), the % of inhibition was determined as 2.6%.

Regarding `CCN(CC)CCCCNc1ncc2cc(-c3cc(OC)cc(OC)c3)c(NC(=O)NC(C)(C)C)nc2n1`, the % of control in assay [18] was 100%.

Take `COc1cc(Nc2nc(C)cc(-c3cnn4nc(OC)ccc34)n2)cc(C(F)(F)F)c1`: in assay [19], the % of control is 77%.

`Cc1cc(F)c(C(=O)Nc2cccc(-c3nncn3C(C)C)n2)cc1-n1cnc(C2CC2)c1`: the % of control in assay [20] came to 87%.

Consider `C=CC(=O)Nc1cccc(C(=O)Nc2ccc(Nc3cc(-c4[nH]c(SC)nc4C)ccn3)cc2)c1`, for which the % of control in [21] turned out to be 82%.

In turn, `CC(=O)c1cc(-c2ccccc2OCC2CC2)c2ncccn12` came in with a % of control in [22] of 100%.

On to `O[C@H]1CC[C@H](Nc2ncc3nc(Nc4c(F)cc(F)cc4F)n([C@H]4CCOC4)c3n2)CC1`, for which the figures for the % of control in assay [23] and in assay [24] were 36% and 75%, respectively.
